GI50 and TGI data for five compounds are collected here from PubChem BioAssay (NCI).

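Protocol summary: plate cells (96-well), add compound at 5 concentrations, incubate 48 h, interpolate endpoints linearly. Here, GI50 denotes the concentration required for 50% inhibition of growth. Definition used: TGI = concentration required for complete inhibition of growth.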 Some results are limits rather than exact numbers.

Holding throughout (test): NCI-60 cell line screen, 48 h
Assay [1] concerns SF-268 CNS.
For assay [2], the system named is UO-31 renal.
In assay [3] the test system is HCT-116 colon.
Assay [4] relates to SK-MEL-5 melanoma.
In assay [5] the test system is SK-OV-3 ovarian.
Assay [6] relates to SK-MEL-2 melanoma.
In assay [7] the test system is PC-3 prostate.
Assay [8] concerns NCI/ADR-RES ovarian.
The subject of assay [9] is HL-60(TB) leukemia.
The test system of assay [10] is SF-295 CNS.

In the case of `CCOC(=O)Nc1nc2ccc(Br)cc2s1`, the GI50 is above 50 µM in [1]; above 50000 nM in assay [2]; above 50000 nM in assay [3]; above 50000 nM in assay [4]; above 50 µM in assay [5]; above 50 µM in assay [6]. Moreover, the GI50 in assay [7] was above 50 µM; in assay [8], above 50 µM; in [9], above 50000 nM; in assay [10], above 50 µM. For the same compound, the TGI in assay [1] was above 50 µM; in assay [2], above 50 µM; in assay [3], above 50000 nM; in [4] it was above 50 µM; in assay [5] it was above 50 µM; in assay [6] it was above 50 µM. Besides, the TGI in assay [7], in assay [8], in assay [9] and in assay [10] was above 50 µM each time.
On to `CC1(C)CC[C@]2(C(=O)O)CC[C@]3(C)C(=CC[C@@H]4[C@@]5(C)C[C@H](O)[C@H](O)[C@@](C)(C(=O)O)[C@@H]5CC[C@]43C)[C@@H]2C1`, for which the TGI in assay [1] was above 100 µM; in [2], above 100 µM; in [3], above 100000 nM; in assay [4], above 100 µM; in assay [5], above 100 µM; in assay [6] it was above 100 µM. Moreover, the TGI is above 100 µM in assay [7], above 100 µM in [8], above 31.6 µM in assay [9] and above 100 µM in assay [10].
For the compound `S=C(NCCNC(=S)[S][Sn]([c]1ccccc1)([c]1ccccc1)[c]1ccccc1)[S][Sn]([c]1ccccc1)([c]1ccccc1)[c]1ccccc1`, the GI50 in assay [1] is 0.0416 µM; in assay [2] it was 33.7 nM; in [3] it was 12.7 nM; in assay [4], 43.2 nM; in [5] it was 0.0231 µM; in assay [6], 0.0823 µM. Moreover, the GI50 in assay [7] is 0.0311 µM; in [8], 0.0184 µM; in [9] it was 93 nM; in assay [10], 0.099 µM. For the same compound, the TGI in assay [1] is 0.123 µM; in [2] it was 0.1 µM; in assay [3], 31.5 nM; in assay [4], 0.108 µM; in assay [5] it was 0.0799 µM; in assay [6], 0.215 µM. The TGI worked out at 0.153 µM in assay [7], 0.0976 µM in assay [8], 0.312 µM in assay [9] and 0.227 µM in assay [10].
Turning to `CCc1nc(N)nc(N)c1-c1ccc2nnn(O)c2c1`, the TGI is above 100 µM in assay [1]; above 100 µM in assay [2]; above 100000 nM in [3]; above 100 µM in [4]; above 100 µM in [5]; above 100 µM in [6]. The TGI in [7], in assay [8], in assay [9] and in [10] was above 100 µM each time.
Take `[Cl][Hg][c]1ccc(Cl)s1`: the GI50 is 3.48 µM in [1]; 1780 nM in assay [2]; 1490 nM in [3]; 2450 nM in [4]; 13.6 µM in assay [5]; 4.65 µM in [6]. The GI50 in assay [7] is 5.62 µM; in assay [8], 3.31 µM; in assay [9] it was 2100 nM; in assay [10], 11.5 µM. Also, the TGI in assay [1] stood at 13.3 µM; in assay [2] it was 3.26 µM; in assay [3] it was 2970 nM; in assay [4] it was 7.34 µM; in [5], 26.8 µM; in [6], 17.6 µM. In addition, the TGI worked out at 16.2 µM in [7], 23.3 µM in [8], 6.29 µM in assay [9] and 25.7 µM in assay [10].
